Common to all, as to assay type: cell-based
The subject of test [1] is BHK-21 cells. Description: Anti-fibrosis activity test: inhibition of BHK-21 cell proliferation (CCK-8). The conditions noted are these: Mesocricetus auratus, BHK-21, 48 h, CCK-8, 48 hours after administration. The method, boiled down: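 BHK-21 cells seeded at 2×10^4 cells/mL, allowed to adhere 24 h at 37° C, 5% CO2, then exposed to compounds at graded concentrations in triplicate for 48 h. CCK-8 added for 2 h and absorbance read at 450 nm; inhibition rate taken as (1−Ai/Ao)×100% and IC50 fitted.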

Test [2] deals with human lung fibroblasts HFL1. Description: Anti-fibrosis activity test: inhibition of proliferation of human lung fibroblasts HFL1 (CCK-8). The conditions noted are these: Homo sapiens, HFL1, 48 h, human lung fibroblasts HFL1, CCK-8, 48 hours. An outline of the steps:
(§1)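 Cells seeded at 2×10^4 cells/mL, adhered 24 h, then exposed to compound concentrations in triplicate for 48 h at 37° C, 5% CO2. CCK-8 added for 2 h, absorbance at 450 nm; inhibition = (1−Ai/Ao)×100% versus blank control, IC50 calculated.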

For test [3], the system named is human hepatic stellate cells LX-2. Description: Anti-fibrosis activity test: inhibition of proliferation of human hepatic stellate cells LX-2 (CCK-8). The conditions noted are these: Homo sapiens, 48 h, human hepatic stellate cells LX-2, CCK-8, 48 hours. The method, boiled down: as §1
Test [4] has as its system human fibrosarcoma cells HT-1080. Nature of the test: Anti-fibrosis activity test: inhibition of proliferation of human fibrosarcoma cells HT-1080 (CCK-8). The conditions noted are these: Homo sapiens, HT-1080, 48 h, human fibrosarcoma cells HT-1080, CCK-8, 48 hours. An outline of the steps:
as §1

Test [5] concerns human dermal fibroblasts CCC-ESF-1. Description: Anti-fibrosis activity test: inhibition of proliferation of human dermal fibroblasts CCC-ESF-1 (CCK-8). The conditions noted are these: Fibroblast; human dermal fibroblasts CCC-ESF-1, CCK-8, 48 hours. An outline of the steps:
as §1

Test [6] concerns human embryonic lung fibroblast IMR-90. Description: Anti-fibrosis activity test: inhibition of proliferation of human embryonic lung fibroblast IMR-90 (CCK-8). The conditions noted are these: human embryonic lung fibroblast IMR-90, CCK-8, 48 hours. The method, boiled down: as §1
Test [7] concerns cardiac fibroblast RAT-iCell-C002. Nature of the test: Anti-fibrosis activity test: inhibition of proliferation of cardiac fibroblast RAT-iCell-C002 (CCK-8). The conditions noted are these: Cardiac fibroblast, 48 h, cardiac fibroblast RAT-iCell-C002, CCK-8, 48 hours. An outline of the steps: as §1
Test [8] has as its system NF-κB. Description: Immunological activity test: inhibition of NF-κB activity. The conditions noted are these: initial concentration of 30 μM; a/b isomers given as first/second symbol; read-out: IC50 (μM), inhibitory activity against NF-κB. The method, boiled down: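 IC50 values come from further analysis of the data after an initial test at a single 30 μM concentration. Parthenolide served as the reference inhibitor.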

Test [9] deals with mouse macrophages (RAW264.7). Nature of the test: Lipopolysaccharide-induced NO secretion in macrophages (Griess). The conditions noted are these: Mus musculus, RAW264.7, 24 h, RAW264.7, LPS 1 μg/ml, a/b isomers given as first/second symbol, read-out: IC50 (μM), inhibition of lipopolysaccharide-induced NO secretion in macrophages. An outline of the steps: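 RAW264.7 macrophages in DMEM with 10% FBS received test samples at several concentrations and were stimulated with 1 μg/ml LPS for 24 h. NO in the supernatant was measured with the Griess reagent at 548 nm, […].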
(The Griess reaction detects nitrite, a stable product of nitric oxide.)

Broadly, the IC50 is the concentration that inhibits the measured activity by half. In the case of `O=C1c2c(n(Cc3ccc(I)cc3)c3ccccc3c2=O)-c2cccn21` [Compound 575a, 4-(4-Iodobenzyl)-9H-pyrrolizino[1,2-b]quinoline-9,10(4H)-dione], the concentration for half-maximal inhibition (IC50) in test [1] is below 0.05 mM; in [2], 0.05 to 5 mM; in [3], 0.05 to 5 mM; in [4], 0.05 to 5 mM; in test [5], 0.05 to 5 mM; in test [6] it was 0.05 to 5 mM. The IC50 in [7] was in the range of 0.05 to 5 mM; in test [8], 0.1 to 1 µM; in [9], 1 to 10 µM.
Regarding `O=C1c2c(nc3ccccc3c2OCc2ccc(I)cc2)-c2cccn21` [Compound 575b, 9-((4-iodobenzyl)oxy)-10H-pyrrolizino[1,2-b]quinolin-10-one], the IC50 in test [1], in [2], in test [3], in test [4], in [5] and in [6] was 0.05 to 5 mM each time. In addition, the IC50 in test [7] lay in the range of 0.05 to 5 mM; in test [8] it was 1 to 10 µM; in test [9], 1 to 10 µM.
In the case of `O=C1c2c(n(Cc3ccccc3I)c3ccccc3c2=O)-c2cccn21` [Compound 576a, 4-(2-Iodobenzyl)-9H-pyrrolizino[1,2-b]quinoline-9,10(4H)-dione], the IC50 in test [1], in test [2], in [3], in test [4], in test [5] and in test [6] was 0.05 to 5 mM each time. In addition, the IC50 is 0.05 to 5 mM in test [7], 1 to 10 µM in [8] and 1 to 10 µM in test [9].
Consider `O=C1c2c(nc3ccccc3c2OCc2ccccc2I)-c2cccn21` [Compound 576b, 9-((2-iodobenzyl)oxy)-10H-pyrrolizino[1,2-b]quinolin-10-one], for which the IC50 in [1], in test [2], in test [3], in [4], in [5] and in [6] was 0.05 to 5 mM each time. For the same compound, the IC50 in test [7] fell in the range of 0.05 to 5 mM; in test [8] it was 1 to 10 µM; in test [9], 1 to 10 µM.
Regarding `N#Cc1ccccc1Cn1c2c(c(=O)c3ccccc31)C(=O)n1cccc1-2` [Compound 577a, 2-((9,10-Dioxo-9H-pyrrolizino[1,2-b]quinolin-4(10H)-yl)methyl)benzonitrile], the half-inhibitory concentration (IC50) in test [1] is 0.05 to 5 mM; in test [2], 0.05 to 5 mM; in [3], below 0.05 mM; in test [4], 0.05 to 5 mM; in test [5] it was 0.05 to 5 mM; in [6], 0.05 to 5 mM. Further, the IC50 in [7] lay within 0.05 to 5 mM; in test [8], 1 to 10 µM; in [9], 1 to 10 µM.
On to `N#Cc1ccccc1COc1c2c(nc3ccccc13)-c1cccn1C2=O` [Compound 577b, 2-(((10-oxo-10H-pyrrolizino[1,2-b]quinolin-9-yl)oxy)methyl)benzonitrile], for which the IC50 in test [1], in test [2], in test [3], in test [4], in test [5] and in test [6] was 0.05 to 5 mM in each case. The half-inhibitory concentration (IC50) was in the range of 0.05 to 5 mM in [7], 1 to 10 µM in test [8] and 1 to 10 µM in test [9].
As for `O=C1c2c(n(Cc3ccc(F)cc3F)c3ccccc3c2=O)-c2cccn21` [Compound 578a, 4-(2,4-Difluorobenzyl)-9H-pyrrolizino[1,2-b]quinoline-9,10(4H)-dione], the IC50 in [1] was 0.05 to 5 mM; in test [2] it was 0.05 to 5 mM; in [3], 0.05 to 5 mM; in test [4] it was below 0.05 mM; in test [5], 0.05 to 5 mM; in [6] it was 0.05 to 5 mM. Further, the IC50 in test [7] fell in the range of 0.05 to 5 mM; in test [8], 1 to 10 µM; in [9], 1 to 10 µM.
On to `O=C1c2c(nc3ccccc3c2OCc2ccc(F)cc2F)-c2cccn21` [Compound 578b, 9-((2,4-difluorobenzyl)oxy)-10H-pyrrolizino[1,2-b]quinolin-10-one], for which the IC50 in [1], in test [2], in [3], in [4], in test [5] and in test [6] was 0.05 to 5 mM in each case. The IC50 was 0.05 to 5 mM in test [7], 1 to 10 µM in [8] and 1 to 10 µM in [9].
With `O=C1c2c(n(Cc3cc(F)cc(F)c3)c3ccccc3c2=O)-c2cccn21` [Compound 579a, 4-(3,5-Difluorobenzyl)-9H-pyrrolizino[1,2-b]quinoline-9,10(4H)-dione], the IC50 in test [1], in test [2], in [3], in [4], in test [5] and in test [6] was 0.05 to 5 mM each time. The figures for the IC50 in [7], in test [8] and in test [9] were 0.05 to 5 mM, 0.1 to 1 µM and 1 to 10 µM, respectively.
Regarding `O=C1c2c(nc3ccccc3c2OCc2cc(F)cc(F)c2)-c2cccn21` [Compound 579b, 9-((3,5-difluorobenzyl)oxy)-10H-pyrrolizino[1,2-b]quinolin-10-one], the IC50 in test [1], in test [2], in test [3], in [4], in [5] and in test [6] was 0.05 to 5 mM each time. Moreover, the IC50 lay within 0.05 to 5 mM in test [7], 0.1 to 1 µM in test [8] and 1 to 10 µM in [9].
Turning to `COc1cc(Cn2c3c(c(=O)c4ccccc42)C(=O)n2cccc2-3)cc(OC)c1` [Compound 580a, 4-(3,5-Dimethoxybenzyl)-9H-pyrrolizino[1,2-b]quinoline-9,10(4H)-dione], the IC50 in test [1], in test [2], in [3], in test [4], in test [5] and in test [6] was 0.05 to 5 mM each time. Also, the IC50 in [7] lay within 0.05 to 5 mM; in test [8] it was 1 to 10 µM; in test [9], 0.1 to 1 µM.
Regarding `COc1cc(COc2c3c(nc4ccccc24)-c2cccn2C3=O)cc(OC)c1` [Compound 580b, 9-((3,5-dimethoxybenzyl)oxy)-10H-pyrrolizino[1,2-b]quinolin-10-one], the IC50 in [1], in test [2], in [3], in test [4], in test [5] and in test [6] was 0.05 to 5 mM in each case. Further, the IC50 in test [7] lay within 0.05 to 5 mM; in test [8] it was 1 to 10 µM; in [9], 1 to 10 µM.
As to `O=C1c2c(n(Cc3ccccc3C(F)(F)F)c3ccccc3c2=O)-c2cccn21` [Compound 581a, 4-(2-(Trifluoromethyl)benzyl)-9H-pyrrolizino[1,2-b]quinoline-9,10(4H)-dione], the IC50 in [1], in test [2], in test [3], in [4], in [5] and in test [6] was 0.05 to 5 mM throughout. The IC50 in [7] was in the range of 0.05 to 5 mM; in test [8], 1 to 10 µM; in test [9] it was 0.1 to 1 µM.
Turning to `O=C1c2c(nc3ccccc3c2OCc2ccccc2C(F)(F)F)-c2cccn21` [Compound 581b, 9-((2-(trifluoromethyl)benzyl)oxy)-10H-pyrrolizino[1,2-b]quinolin-10-one], the IC50 in [1], in [2], in test [3], in test [4], in test [5] and in test [6] was 0.05 to 5 mM in each case. Besides, the IC50 in [7] lay within 0.05 to 5 mM; in [8] it was 1 to 10 µM; in [9], 1 to 10 µM.
Consider `O=C1c2c(n(Cc3cccc(Cl)c3F)c3ccccc3c2=O)-c2cccn21` [Compound 582a, 4-(3-Chloro-2-fluorobenzyl)-9H-pyrrolizino[1,2-b]quinoline-9,10(4H)-dione], for which the IC50 in test [1], in test [2], in test [3], in test [4], in [5] and in test [6] was 0.05 to 5 mM each time. The figures for the IC50 in [7], in test [8] and in test [9] were 0.05 to 5 mM, 1 to 10 µM and 1 to 10 µM, respectively.

(Values after patent publication US11040028B2, “Penicinotam derivative, preparation method and use thereof” (OCEAN UNIVERSITY OF CHINA, priority 2017, dated 2021).)
